Measured values reported in patent US20240180877A1, “ANTI-ANXIETY COMPOSITION” (SUNTORY HOLDINGS LIMITED, priority 2021, published 2024).

Assays:
[1] = molecular target: T1, Recombinant human α3/β4 nicotinic acetylcholine receptors (nAChR (α3β4)) (Homo sapiens, UniProt P30926+P32297); assay: Inhibition of [125I]epibatidine binding to nAChR (α3β4) cell membranes
T1 construct: host or cells: CHO-K1
Experimental: (§1) In order to evaluate molecular targets for reducing glutamate signaling by L-ergothioneine, nicotinic acetylcholine receptors associated with glutamate signaling were subjected to in vitro assay. The in vitro assay was commissioned to Eurofins Panlabs. The test was performed by the following method.
Recombinant human α3/β4 nicotinic acetylcholine receptors (nAChR (α3β4)) expressed in Chinese hamster ovary-derived CHO-K1 cells were used. Cell membranes (0.6 μg) of the cells expressing nAChR (α3β4) were incubated in Tris-HCl buffer (pH 7.4) with 0.05 nM [125I]epibatidine and L-ergothioneine (L-ergothioneine concentration: 30 μM, 100 μM, 300 μM, 1000 μM, or 3000 μM) at 25° C. for 60 minutes. Non-specific binding was estimated in the presence of 10 μM epibatidine. The cell membranes were filtered through a filter and washed, and the activity of L-ergothioneine to inhibit binding of substrates was evaluated using radioactivity of [125I]epibatidine as an index.

[2] = molecular target: T2, Recombinant human α4/β2 nicotinic acetylcholine receptors (nAChR (α4β2)) (Homo sapiens, UniProt P17787+P43681); assay: Inhibition of [3H]cytisine binding to nAChR (α4β2) cell membranes; details: FIG. 3; 100 μM or 1000 μM; 0.6 nM [3H]cytisine; SH-SY5Y cell membranes
T2 construct: host or cells: SH-SY5Y
T2 sequence (P43681 29-627 limits assumed): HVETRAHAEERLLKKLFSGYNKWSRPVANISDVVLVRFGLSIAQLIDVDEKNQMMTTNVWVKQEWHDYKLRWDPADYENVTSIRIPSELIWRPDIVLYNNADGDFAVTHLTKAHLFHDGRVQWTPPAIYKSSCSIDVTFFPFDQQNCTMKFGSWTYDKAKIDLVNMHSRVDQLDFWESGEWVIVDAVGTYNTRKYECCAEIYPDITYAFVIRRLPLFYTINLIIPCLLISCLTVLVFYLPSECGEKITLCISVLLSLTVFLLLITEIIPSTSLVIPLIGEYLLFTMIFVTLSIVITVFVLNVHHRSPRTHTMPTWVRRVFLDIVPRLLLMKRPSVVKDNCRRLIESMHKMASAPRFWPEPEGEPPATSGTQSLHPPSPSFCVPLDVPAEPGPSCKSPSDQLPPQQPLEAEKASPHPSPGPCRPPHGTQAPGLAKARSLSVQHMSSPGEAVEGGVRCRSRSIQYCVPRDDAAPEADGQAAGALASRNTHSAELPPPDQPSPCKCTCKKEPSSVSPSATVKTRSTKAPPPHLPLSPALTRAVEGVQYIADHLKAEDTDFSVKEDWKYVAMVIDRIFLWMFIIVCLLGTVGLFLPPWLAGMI
T2 sequence (P17787 26-502): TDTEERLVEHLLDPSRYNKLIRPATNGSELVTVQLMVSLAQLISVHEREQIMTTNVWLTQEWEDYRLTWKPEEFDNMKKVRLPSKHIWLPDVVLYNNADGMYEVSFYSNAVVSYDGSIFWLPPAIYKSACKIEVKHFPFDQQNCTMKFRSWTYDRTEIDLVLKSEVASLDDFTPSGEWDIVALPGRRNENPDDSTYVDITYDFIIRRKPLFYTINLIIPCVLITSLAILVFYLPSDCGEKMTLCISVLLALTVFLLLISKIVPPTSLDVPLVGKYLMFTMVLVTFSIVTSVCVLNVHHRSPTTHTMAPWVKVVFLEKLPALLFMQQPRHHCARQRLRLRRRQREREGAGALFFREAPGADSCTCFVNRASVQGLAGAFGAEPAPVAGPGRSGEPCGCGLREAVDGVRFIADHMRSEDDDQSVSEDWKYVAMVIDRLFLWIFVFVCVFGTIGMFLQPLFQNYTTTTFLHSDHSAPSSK
Experimental: as §1
Recombinant human α4/β2 nicotinic acetylcholine receptors (nAChR (α4β2)) expressed in human neuroblastoma-derived SH-SY5Y cells were used. Cell membranes (30 μg) of the cells expressing nAChR (α4β2) were incubated in Tris-HCl buffer (pH 7.4) with 0.6 nM [3H]cytisine and L-ergothioneine (L-ergothioneine concentration: 100 μM or 1000 μM) at 4° C. for 120 minutes. Non-specific binding was estimated in the presence of 10 μM nicotine bitartrate. The cell membranes were filtered through a filter and washed, and the activity of L-ergothioneine to inhibit binding of substrates was evaluated using radioactivity of [3H]cytisine as an index.

[3] = molecular target: Recombinant human α7 nicotinic acetylcholine receptors (nAChR (α7)) (Homo sapiens, UniProt P36544); type: binding; details: FIG. 3; 100 μM or 1000 μM; 0.4 nM [125I]-α-bungarotoxin; SH-SY5Y cell membranes
Sequence of Recombinant human α7 nicotinic acetylcholine receptors (nAChR (α7)) (P36544 23-502): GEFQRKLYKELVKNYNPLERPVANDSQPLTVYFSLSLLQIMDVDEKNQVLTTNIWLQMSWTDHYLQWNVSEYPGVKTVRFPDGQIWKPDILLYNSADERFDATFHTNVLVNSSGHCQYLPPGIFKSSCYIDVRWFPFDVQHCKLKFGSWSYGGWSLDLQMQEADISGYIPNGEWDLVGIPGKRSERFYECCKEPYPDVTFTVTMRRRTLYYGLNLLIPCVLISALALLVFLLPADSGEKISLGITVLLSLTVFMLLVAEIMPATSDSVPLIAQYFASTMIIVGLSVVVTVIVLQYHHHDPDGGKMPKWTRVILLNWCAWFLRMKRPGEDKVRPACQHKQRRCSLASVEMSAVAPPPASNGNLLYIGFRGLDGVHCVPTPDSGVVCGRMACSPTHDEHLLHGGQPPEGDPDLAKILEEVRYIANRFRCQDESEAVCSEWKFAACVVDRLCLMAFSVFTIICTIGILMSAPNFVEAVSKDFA

T1 sequence (P30926 22-498): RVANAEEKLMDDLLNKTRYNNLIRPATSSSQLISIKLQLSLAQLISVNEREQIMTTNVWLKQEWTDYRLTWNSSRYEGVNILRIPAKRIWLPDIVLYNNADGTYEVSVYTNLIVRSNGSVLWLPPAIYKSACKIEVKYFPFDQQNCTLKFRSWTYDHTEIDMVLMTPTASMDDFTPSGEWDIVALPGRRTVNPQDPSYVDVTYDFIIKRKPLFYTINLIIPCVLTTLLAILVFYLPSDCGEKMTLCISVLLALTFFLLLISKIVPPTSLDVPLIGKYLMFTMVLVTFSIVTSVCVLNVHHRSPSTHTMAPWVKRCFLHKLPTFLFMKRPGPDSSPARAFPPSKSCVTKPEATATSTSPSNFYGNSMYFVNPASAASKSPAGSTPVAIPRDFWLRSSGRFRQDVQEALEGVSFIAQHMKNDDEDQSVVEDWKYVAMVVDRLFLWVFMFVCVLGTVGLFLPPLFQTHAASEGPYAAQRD
T1 sequence (P32297 32-505): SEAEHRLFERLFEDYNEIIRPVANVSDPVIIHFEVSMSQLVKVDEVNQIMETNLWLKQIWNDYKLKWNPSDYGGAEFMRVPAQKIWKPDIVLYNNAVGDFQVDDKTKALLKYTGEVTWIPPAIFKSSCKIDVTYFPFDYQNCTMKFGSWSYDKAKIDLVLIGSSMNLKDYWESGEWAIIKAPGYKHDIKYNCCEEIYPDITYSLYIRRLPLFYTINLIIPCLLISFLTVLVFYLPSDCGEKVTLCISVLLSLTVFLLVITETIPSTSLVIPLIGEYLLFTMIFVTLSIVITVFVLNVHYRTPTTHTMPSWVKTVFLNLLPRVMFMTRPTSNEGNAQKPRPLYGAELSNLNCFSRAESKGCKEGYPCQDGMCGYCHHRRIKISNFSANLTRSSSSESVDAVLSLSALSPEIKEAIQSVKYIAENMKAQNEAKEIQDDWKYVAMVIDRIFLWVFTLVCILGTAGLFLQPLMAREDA

C[N+](C)(C)[C@@H](Cc1c[nH]c(=S)[nH]1)C(=O)[O-] [L-ergothioneine]
activity to inhibit binding of substrates to α3β4 receptors ([1]; FIG. 3, [125I]epibatidine): strong activity | IC50 ([1]; five concentrations 30-3000 μM, 0.05 nM [125I]epibatidine, CHO-K1 cell membranes, 25° C., 60 minutes, read-out: 50% inhibitory concentration): 1.11 mM | activity to inhibit binding of substrates to α4β2 receptors [2]: showed the activity | activity to inhibit binding of substrates to α7 receptors [3]: showed the activity
